According to article PMC3461998 (Angewandte Chemie (International ed. in English), 2012):
pKd: −log10 of the molar value. Read-outs that look alike come from different tables or passages of the source.

Columns and labels:
[1] = target: mouse IgG (mouse); assay: magnetic relaxation
[2] = target: T1, cholera toxin B subunit (CTB) (Vibrio cholerae serotype O1, UniProt P01556); assay: biochemical; assay type: binding
[3] = target: T2, tetanus toxin C fragment (TTC) (Clostridium tetani, UniProt P04958); settings: read-out: KD Reported; cited from earlier work
[4] = target: T2, tetanus toxin C fragment (TTC); assay: biochemical; assay type: binding
[5] = target: avidin (Gallus gallus, UniProt P02701); assay: bMR nanosensor competition assay, avidin-biotin; assay type: binding; settings: control study with avidin bMR nanosensors
[6] = target: T1, cholera toxin B subunit (CTB); settings: read-out: KD Reported; cited from earlier work
[7] = target: Concanavalin A (Canavalia ensiformis, UniProt P02866); settings: read-out: KD Reported; cited from earlier work

T2 sequence (P04958 865-1315 limits assumed): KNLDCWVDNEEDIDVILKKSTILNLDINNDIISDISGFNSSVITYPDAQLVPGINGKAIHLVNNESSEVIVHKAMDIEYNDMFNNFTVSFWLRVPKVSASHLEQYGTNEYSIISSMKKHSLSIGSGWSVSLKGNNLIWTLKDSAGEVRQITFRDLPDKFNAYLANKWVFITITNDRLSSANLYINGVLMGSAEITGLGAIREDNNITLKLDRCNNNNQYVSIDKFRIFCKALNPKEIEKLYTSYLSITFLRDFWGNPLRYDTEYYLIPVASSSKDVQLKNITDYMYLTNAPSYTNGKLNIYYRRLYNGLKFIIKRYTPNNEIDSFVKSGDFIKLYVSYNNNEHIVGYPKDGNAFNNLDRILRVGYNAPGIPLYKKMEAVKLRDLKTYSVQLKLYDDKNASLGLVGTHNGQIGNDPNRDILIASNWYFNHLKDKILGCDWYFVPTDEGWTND
T1 sequence (P01556 22-124 limits assumed): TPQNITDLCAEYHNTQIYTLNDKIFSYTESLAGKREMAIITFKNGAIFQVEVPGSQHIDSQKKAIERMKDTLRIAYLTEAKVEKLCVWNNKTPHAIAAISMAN
Sequence of avidin (P02701 25-152, species assumed): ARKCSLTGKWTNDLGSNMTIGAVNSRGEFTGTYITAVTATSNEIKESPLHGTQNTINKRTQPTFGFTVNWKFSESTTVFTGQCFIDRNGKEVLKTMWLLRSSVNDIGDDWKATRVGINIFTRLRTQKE

Protein G (from UniProt P06654 34-417) (natural protein)
pKd [1]: 12.40

OC[C@H]1OC(O)[C@H](O)[C@@H](O)[C@@H]1O (stereo partly drawn) [Glucose, glucose]
pKd [2]: 4.44

COc1cccc2c1C(=O)c1c(O)c3c(c(O)c1C2=O)C[C@@](O)(C(=O)CO)C[C@@H]3O[C@H]1C[C@H](N)[C@H](O)[C@H](C)O1 [Doxorubicin, doxorubicin]
pKd [3]: 5.03
pKd [4]: 5.39

bovine serum albumin
changes in magnetic relaxation [5]: nominal changes

OC[C@H]1O[C@@H]2O[C@H]3[C@H](O)[C@@H](O)[C@@H](O[C@H]4[C@H](O)[C@@H](O)[C@@H](O[C@H]5[C@H](O)[C@@H](O)[C@@H](O[C@H]6[C@H](O)[C@@H](O)[C@@H](O[C@H]7[C@H](O)[C@@H](O)[C@@H](O[C@H]8[C@H](O)[C@@H](O)[C@@H](O[C@H]1[C@H](O)[C@H]2O)O[C@@H]8CO)O[C@@H]7CO)O[C@@H]6CO)O[C@@H]5CO)O[C@@H]4CO)O[C@@H]3CO [β-Cyclodextrin, β-cyclodextrin]
pKd [2]: 5.44

O=C(O)c1cc(O)c2c(c1)C(=O)c1cccc(O)c1C2=O [Rhein, rhein]
pKd [4]: 4.47

dextran
pKd [2]: 5.31
pKd [6]: 1.85
pKd [7]: 7.05

OC[C@H]1O[C@@H](O[C@H]2[C@H](O)[C@@H](O)C(O)O[C@@H]2CO)[C@H](O)[C@@H](O)[C@H]1O (mixture of isomers) [Lactose, lactose]
pKd [2]: 4.06

O=C[C@H](O)[C@@H](O)[C@@H](O)[C@H](O)CO [Galactose, galactose]
pKd [2]: 5.46
